Data on 21 compounds can be found in patent US7384965B2, “Fused heterocyclic derivatives as PPAR modulators” (Eli Lilly and Company, priority 2003, dated 2008).

Compound `Cc1cc(SC(C)c2cccc3nc(-c4ccc(C(F)(F)F)cc4)oc23)ccc1OCC(=O)O` (racemic) [Example 79, (+/−)-2-Methyl-4-{1-[2-(4-trifluoromethylphenyl)benzooxazol-7-yl]ethylsulfanyl}phenoxyacetic Acid] had a melting point of 134 to 138 °C.
In the case of `CC(Sc1ccc2c(CC(=O)O)csc2c1)c1cccc2nc(-c3ccc(C(F)(F)F)cc3)oc12` (racemic) [Example 82, (+/−)-6-{1-[2-(4-Trifluoromethylphenyl)benzooxazol-7-yl]ethylsulfanyl}benzo[b]thiophen-3-ylacetic Acid] it was 195 to 198 °C.
Turning to `Cc1cc(SC(C)(C)c2cccc3nc(-c4ccc(C(F)(F)F)cc4)oc23)ccc1OCC(=O)O` [Example 75, 2-Methyl-4-{1-methyl-1-[2-(4-trifluoromethylphenyl)benzooxazol-7-yl]ethylsulfanyl}phenoxyacetic Acid], the melting point lay within 131 to 133 °C.
With `O=C(O)Cc1csc2cc(OCc3cccc4nc(-c5ccc(C(F)(F)F)cc5)oc34)ccc12` [Example 70, 6-[2-(4-Trifluoromethylphenyl)benzooxazol-7-ylmethoxy]benzo[b]thiophen-3-ylacetic Acid] the figure was 215 to 216 °C; with `O=C(O)Cc1cccc(SCc2cccc3[nH]c(-c4ccc(C(F)(F)F)cc4)nc23)c1` [Example 88, 3-[2-(4-Trifluoromethylphenyl)-1H-benzoimidazol-4-ylmethylsulfanyl]phenylacetic Acid], 180 to 183 °C; with `Cc1cc(SC(C)c2ccc3nc(-c4ccc(C(F)(F)F)cc4)sc3c2)ccc1CCC(=O)O` (racemic) [Example 63, (+/−)-3-(2-Methyl-4-{1-[2-(4-trifluoromethylphenyl)benzothiazol-6-yl]ethylsulfanyl}phenyl)propionic Acid], 159 to 161 °C.
Turning to `CCc1cc(SCCc2cccc3sc(-c4ccc(C(F)(F)F)cc4)nc23)ccc1OCC(=O)O` [Example 50, 2-Ethyl-4-{2-[2-(4-trifluoromethylphenyl)benzothiazol-4-yl]ethylsulfanyl}phenoxyacetic Acid], the melting point was 84 to 86 °C.
In the case of `CCc1cc(SCc2cccc3oc(-c4ccc(C(F)(F)F)cc4)nc23)ccc1OCC(=O)O` [Example 67, 2-Ethyl-4-[2-(4-trifluoromethylphenyl)benzooxazol-4-ylmethylsulfanyl]phenoxyacetic Acid] it was 127 to 128 °C; in that of `Cc1cc(SCCc2cccc3sc(-c4ccc(C(F)(F)F)cc4)nc23)ccc1CCC(=O)O` [Example 49, 3-(2-Methyl-4-{2-[2-(4-trifluoromethylphenyl)benzothiazol-4-yl]ethylsulfanyl}phenyl)propionic Acid], 118 to 120 °C; in that of `O=C(O)Cc1csc2cc(OCc3cccc4sc(-c5ccc(C(F)(F)F)cc5)nc34)ccc12` [Example 42, 6-[2-(4-Trifluoromethylphenyl)benzothiazol-4-ylmethoxy]benzo[b]thiophen-3-ylacetic Acid], 185 to 190 °C.
`O=C(O)Cc1csc2cc(SCc3cccc4sc(-c5ccc(C(F)(F)F)cc5)nc34)ccc12` [Example 43] displayed a melting point of 168 to 170 °C.
In turn, `CCc1cc(SCc2cccc3sc(-c4ccc(C(F)(F)F)cc4)nc23)ccc1OCC(=O)O` [Example 40] gave a melting point of 89 to 92 °C.
`O=C(O)Cc1cccc(SCc2cccc3nc(-c4ccc(C(F)(F)F)cc4)oc23)c1` [Example 73, 3-[2-(4-Trifluoromethylphenyl)benzooxazol-7-ylmethylsulfanyl]phenylacetic Acid] had a melting point of 147 to 149 °C.
`Cc1cc(OC(C)c2cccc3nc(-c4ccc(C(F)(F)F)cc4)oc23)ccc1CCC(=O)O` (racemic) [Example 83, (+/−)-3-(2-Methyl-4-{1-[2-(4-trifluoromethylphenyl)benzooxazol-7-yl]ethoxy}phenyl)propionic Acid] registered a melting point of 142 to 144 °C.
As to `Cc1cc(SCc2cccc3nc(-c4ccc(C(F)(F)F)cc4)sc23)ccc1CCC(=O)O` [Example 46, 3-{2-Methyl-4-[2-(4-trifluoromethylphenyl)benzothiazol-7-ylmethylsulfanyl]phenyl}propionic Acid], the melting point was 136 to 139 °C.
`CC(C)(Sc1ccc2c(CC(=O)O)csc2c1)c1cccc2nc(-c3ccc(C(F)(F)F)cc3)oc12` [Example 78, 6-{1-Methyl-1-[2-(4-trifluoromethylphenyl)benzooxazol-7-yl]ethylsulfanyl}benzo[b]thiophen-3-ylacetic Acid]: the melting point lay within 110 to 113 °C.
The compound `Cc1cc(SCc2cccc3[nH]c(-c4ccc(C(F)(F)F)cc4)nc23)ccc1CCC(=O)O` [Example 86, 3-{2-Methyl-4-[2-(4-trifluoromethylphenyl)-1H-benzoimidazol-4-ylmethylsulfanyl]phenyl}propionic Acid] displayed a melting point of 214 to 216 °C.
As for `Cc1cc(SC(C)c2ccc3nc(-c4ccc(C(F)(F)F)cc4)sc3c2)ccc1OCC(=O)O` (racemic) [Example 62, (+/−)-2-Methyl-4-{1-[2-(4-trifluoromethylphenyl)benzothiazol-6-yl]ethylsulfanyl}phenoxyacetic Acid], the melting point lay in the range of 170 to 173 °C.
In turn, `O=C(O)Cc1csc2cc(SCc3cccc4nc(-c5ccc(C(F)(F)F)cc5)sc34)ccc12` [Example 47, 6-[2-(4-Trifluoromethylphenyl)benzothiazol-7-ylmethylsulfanyl]benzo[b]thiophen-3-ylacetic Acid] gave a melting point of 201 to 204 °C.
`Cc1cc(SCc2cccc3nc(-c4ccc(C(F)(F)F)cc4)oc23)ccc1OCC(=O)O` [Example 74, 2-Methyl-4-[2-(4-trifluoromethylphenyl)benzooxazol-7-ylmethylsulfanyl]phenoxyacetic Acid] came in with a melting point of 172 to 174 °C.
The compound `Cc1cc(SCc2ccnc3sc(-c4ccc(C(F)(F)F)cc4)nc23)ccc1CCC(=O)O` [Example 101, 3-{2-Methyl-4-[2-(4-trifluoromethylphenyl)thiazolo[5,4-b]pyridin-7-ylmethylsulfanyl]phenyl}propionic Acid] showed a melting point of 65 to 70 °C.
